{"source": "patent US20120040946A1", "about": "(APEX LABORATORIES PRIVATE LIMITED, priority 2009, published 2012)", "key": {"[1]": {"assay": "Stability analysis of raw API (3 months, open & closed Petri dish) by stability indicating HPLC method and titration method", "type": "physicochemical", "conditions": "for Fusidic Acid Assay (%) HPLC / Fusidic Acid Assay (%) Titration / Percentage Drop (%) HPLC / Percentage Drop (%) Titration / Sodium Fusidate Assay(%) HPLC / Sodium Fusidate Assay(%) Titration / Percentage (%) HPLC / Percentage (%) Titration: after 3 months; for Percentage Drop (%) HPLC / Percentage Drop (%) Titration: Fusidic acid API; for Percentage (%) HPLC / Percentage (%) Titration: Sodium Fusidate API"}, "Staphylococcus aureus": {"test_system": "Staphylococcus aureus", "assay": "In vitro antimicrobial zone of inhibition study", "type": "cell-based", "description": "The antimicrobial/antibacterial activity of the product is confirmed by the in vitro Antimicrobial Zone of Inhibition studies for the product against Staphylococcusaureus. The details of the studies are detailed below in Table 16."}, "[2]": {"conditions": "20° C.; cited from earlier work"}, "bacterial cells": {"test_system": "bacterial cells", "conditions": "in vitro; cited from earlier work"}, "gram-negative bacteria": {"test_system": "gram-negative bacteria", "conditions": "cited from earlier work"}, "[3]": {"conditions": "at the time of receipt of the API from the supplier"}}, "note": "Counter-ions that a name gives are not always drawn.", "data": [{"smiles": "CC(=O)O[C@H]1C[C@@]2(C)[C@@H](C[C@@H](O)[C@H]3[C@@]4(C)CC[C@@H](O)[C@@H](C)[C@@H]4CC[C@@]32C)/C1=C(\\CCC=C(C)C)C(=O)O", "note": "[Fusidic Acid, Fusidic acid]", "values": [{"measurement": "Fusidic Acid Assay (%) HPLC", "setting": "[1]; 45° C. (Closed)", "result": 92.12, "unit": "%"}, {"measurement": "Fusidic Acid Assay (%) Titration", "setting": "[1]; 45° C. (Closed)", "result": 99.10, "unit": "%"}, {"measurement": "Fusidic Acid Assay (%) HPLC", "setting": "[1]; 45° C. (Open)", "result": 89.52, "unit": "%"}, {"measurement": "Fusidic Acid Assay (%) Titration", "setting": "[1]; 45° C. (Open)", "result": 98.52, "unit": "%"}, {"measurement": "loss in 3 Months", "setting": "[1]; 45° C. (open condition)", "result": "about 11%"}, {"measurement": "Percentage Drop (%) HPLC", "setting": "[1]; 45° C. (Closed)", "result": 8.48, "unit": "%"}, {"measurement": "Percentage Drop (%) Titration", "setting": "[1]; 45° C. (Closed)", "result": 1.50, "unit": "%"}, {"measurement": "Percentage Drop (%) HPLC", "setting": "[1]; 45° C. (Open)", "result": 11.08, "unit": "%"}, {"measurement": "Percentage Drop (%) Titration", "setting": "[1]; 45° C. (Open)", "result": 2.08, "unit": "%"}, {"measurement": "Percentage Drop (%) HPLC", "setting": "[1]; RT (Closed)", "result": 6.23, "unit": "%"}, {"measurement": "Percentage Drop (%) Titration", "setting": "[1]; RT (Closed)", "result": 1.58, "unit": "%"}, {"measurement": "Percentage Drop (%) HPLC", "setting": "[1]; RT (Open)", "result": 7.67, "unit": "%"}, {"measurement": "Percentage Drop (%) Titration", "setting": "[1]; RT (Open)", "result": 1.39, "unit": "%"}, {"measurement": "Fusidic Acid Assay (%) HPLC", "setting": "[1]; RT (Closed)", "result": 94.37, "unit": "%"}, {"measurement": "Fusidic Acid Assay (%) Titration", "setting": "[1]; RT (Closed)", "result": 99.02, "unit": "%"}, {"measurement": "Fusidic Acid Assay (%) HPLC", "setting": "[1]; RT (Open)", "result": 92.93, "unit": "%"}, {"measurement": "Fusidic Acid Assay (%) Titration", "setting": "[1]; RT (Open)", "result": 99.21, "unit": "%"}, {"measurement": "Fusidic Acid Initial (%)", "setting": "[1]; [3]", "result": 100.6, "unit": "%"}, {"measurement": "loss in 3 Months", "setting": "[1]; room temperature (open condition)", "result": "about 7.7%"}, {"measurement": "Inference", "setting": "Staphylococcus aureus; Dose 10 mcg", "result": "Sensitive"}, {"measurement": "Zone Diameter Range (mm)", "setting": "Staphylococcus aureus; Dose 10 mcg", "result": "21-33 mm"}, {"measurement": "Inference", "setting": "Staphylococcus aureus; Dose 20 mcg", "result": "Sensitive"}, {"measurement": "Zone Diameter Range (mm)", "setting": "Staphylococcus aureus; Dose 20 mcg", "result": "20-30 mm"}, {"measurement": "Inference", "setting": "Staphylococcus aureus; Dose 50 mcg", "result": "Sensitive"}, {"measurement": "Zone Diameter Range (mm)", "setting": "Staphylococcus aureus; Dose 50 mcg", "result": "25-32 mm"}]}, {"smiles": "CC1(C)S[C@@H]2[C@H](NC(=O)Cc3ccccc3)C(=O)N2[C@H]1C(=O)O", "note": "[Penicillin G]", "values": [{"measurement": "Inference", "setting": "Staphylococcus aureus; Dose 10 Units", "result": "Resistant"}, {"measurement": "Zone Diameter Range (mm)", "setting": "Staphylococcus aureus; Dose 10 Units", "result": "21-27 mm"}]}, {"smiles": "CC(=O)O[C@H]1C[C@@]2(C)[C@@H](C[C@@H](O)[C@H]3[C@@]4(C)CC[C@@H](O)[C@@H](C)[C@@H]4CC[C@@]32C)/C1=C(\\CCC=C(C)C)C(=O)O", "note": "[Sodium Fusidate, 3μ,11μ,16β-Trihydroxy 29-nor-8μ, 9β, 13μ, 14β-dammara-17(20) [10,21-cis], 24-dien-21-oic acid 16-acetate, sodium salt]", "values": [{"measurement": "solubility in water", "setting": "[2]", "result": "soluble in one part of water"}, {"measurement": "time DNA synthesis continues after contact", "setting": "bacterial cells", "result": 45, "unit": "min"}, {"measurement": "time until bacterial cells stop dividing after contact with the antibiotic", "setting": "bacterial cells", "result": "≤ 2", "unit": "min"}, {"measurement": "Sodium Fusidate Assay(%) HPLC", "setting": "[1]; 45° C. (Closed)", "result": 92.96, "unit": "%"}, {"measurement": "Sodium Fusidate Assay(%) Titration", "setting": "[1]; 45° C. (Closed)", "result": 97.16, "unit": "%"}, {"measurement": "Sodium Fusidate Assay(%) HPLC", "setting": "[1]; 45° C. (Open)", "result": 92.65, "unit": "%"}, {"measurement": "Sodium Fusidate Assay(%) Titration", "setting": "[1]; 45° C. (Open)", "result": 97.07, "unit": "%"}, {"measurement": "loss in 3 Months", "setting": "[1]; 45° C. (open condition), sodium salt", "result": "about 6%"}, {"measurement": "Sodium Fusidate Assay(%) HPLC", "setting": "[1]; RT (Closed)", "result": 97.67, "unit": "%"}, {"measurement": "Sodium Fusidate Assay(%) Titration", "setting": "[1]; RT (Closed)", "result": 98.85, "unit": "%"}, {"measurement": "Sodium Fusidate Assay(%) HPLC", "setting": "[1]; RT (Open)", "result": 96.25, "unit": "%"}, {"measurement": "Sodium Fusidate Assay(%) Titration", "setting": "[1]; RT (Open)", "result": 97.71, "unit": "%"}, {"measurement": "Percentage (%) HPLC", "setting": "[1]; 45° C. (Closed)", "result": 5.74, "unit": "%"}, {"measurement": "Percentage (%) Titration", "setting": "[1]; 45° C. (Closed)", "result": 1.54, "unit": "%"}, {"measurement": "Percentage (%) HPLC", "setting": "[1]; 45° C. (Open)", "result": 6.05, "unit": "%"}, {"measurement": "Percentage (%) Titration", "setting": "[1]; 45° C. (Open)", "result": 1.63, "unit": "%"}, {"measurement": "Percentage (%) HPLC", "setting": "[1]; RT (Closed)", "result": 1.03, "unit": "%"}, {"measurement": "Percentage (%) Titration", "setting": "[1]; RT (Closed)", "result": "−0.15", "unit": "%"}, {"measurement": "Percentage (%) HPLC", "setting": "[1]; RT (Open)", "result": 2.45, "unit": "%"}, {"measurement": "Percentage (%) Titration", "setting": "[1]; RT (Open)", "result": 0.99, "unit": "%"}, {"measurement": "stability as an API compared with Fusidic acid", "setting": "[1]; Tables 1 and 2", "result": "more stable than Fusidic acid"}, {"measurement": "Sodium Fusidate Initial (%)", "setting": "[1]; [3]", "result": 98.7, "unit": "%"}, {"measurement": "loss in 3 Months", "setting": "[1]; room temperature (open condition), sodium salt", "result": "about 2.5%"}, {"measurement": "activity against gram-negative bacteria", "setting": "gram-negative bacteria", "result": "virtually inactive"}]}]}
